From patent publication US10294202B2, “Pyrrolidinones as herbicides” (FMC Corporation, priority 2013, dated 2019)

Tests used:
[1] = test system: blackgrass; assay: Test A postemergence herbicide test; type: in vivo, Alopecurus myosuroides; conditions: for Plant response rating, Blackgrass: 125 g ai/ha, 0 to 100 scale, 0 is no effect, 100 is complete control; for Blackgrass plant response rating (0 to 100 scale, 0 is no effect, 100 is complete control): 500 g ai/ha
Outline: (§1)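 Potted in loam soil/sand blend; postemergence application at 1–2 leaf stage (2–10 cm). Greenhouse ~10 d. Visual injury vs untreated, 0–100 scale; 100 = complete control.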

[2] = test system: sedge, umbrella; assay: Test B flooded paddy test; type: in vivo, Cyperus difformis; conditions: 500 g ai/ha, Flood; scale of 0 to 100 where 0 is no effect and 100 is complete control
Outline: (§2)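 Treatment was made at the 2-leaf stage by dosing the standing floodwater, kept 3 cm above soil level for the whole test. Greenhouse exposure lasted 13 to 15 days. Response is a visual percent rating relative to controls, where a dash indicates no test result.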

[3] = test system: giant foxtail; assay: Test A pre-/postemergence herbicide test; type: in vivo, Setaria faberii; conditions: for Plant response rating, Foxtail, Giant: 0 to 100 scale
Outline: (§3)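 Seeds sown in loam soil/sand blend received a preemergence directed soil spray of test chemical in non-phytotoxic solvent with surfactant; postemergence plants (2–10 cm, one- to two-leaf stage) were sprayed with the same formulation. After about 10 days in greenhouse, injury was rated visually versus untreated controls, 0 (no effect) to 100 (complete control).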

[4] = test system: corn; assay: Test A pre-/postemergence herbicide test; type: in vivo, Zea mays; conditions: Postemergence; for Plant response rating, Corn: 125 g ai/ha, 0 to 100 scale, 0 is no effect, 100 is complete control; for Corn plant response rating (0 to 100 scale, 0 is no effect, 100 is complete control): 500 g ai/ha
Outline: as §3

[5] = test system: ragweed; assay: Test A pre-/postemergence herbicide test; type: in vivo, Ambrosia elatior; conditions: for Plant response rating, Ragweed: 0 to 100 scale
Outline: as §3

[6] = test system: rice; assay: Test B flooded paddy test; type: in vivo, Oryza sativa; conditions: 500 g ai/ha, Flood; scale of 0 to 100 where 0 is no effect and 100 is complete control
Outline: as §2

[7] = test system: barnyardgrass; assay: Test B flooded paddy test; type: in vivo, Echinochloa crus-galli; conditions: 500 g ai/ha, Flood; scale of 0 to 100 where 0 is no effect and 100 is complete control
Outline: as §2

[8] = test system: galium; assay: Test A postemergence herbicide test; type: in vivo, Galium aparine; conditions: for Plant response rating, Galium: 125 g ai/ha, 0 to 100 scale, 0 is no effect, 100 is complete control; for Galium plant response rating (0 to 100 scale, 0 is no effect, 100 is complete control): 500 g ai/ha
Outline: as §1

[9] = test system: pigweed; assay: Test A pre-/postemergence herbicide test; type: in vivo, Amaranthus retroflexus; conditions: for Plant response rating, Pigweed: 0 to 100 scale
Outline: as §3

[10] = test system: wheat; assay: Test A pre-/postemergence herbicide test; type: in vivo, Triticum aestivum; conditions: Postemergence; for Plant response rating, Wheat: 125 g ai/ha, 0 to 100 scale, 0 is no effect, 100 is complete control; for Wheat plant response rating (0 to 100 scale, 0 is no effect, 100 is complete control): 500 g ai/ha
Outline: as §3

[11] = test system: kochia; assay: Test A pre-/postemergence herbicide test; type: in vivo, Kochia scoparia; conditions: for Plant response rating, Kochia: 0 to 100 scale
Outline: as §3

[12] = test system: barnyardgrass; assay: Test A pre-/postemergence herbicide test; type: in vivo, Echinochloa crus-galli
Outline: as §3

[13] = test system: ducksalad; assay: Test B flooded paddy test; type: in vivo, Heteranthera limosa; conditions: 500 g ai/ha, Flood; scale of 0 to 100 where 0 is no effect and 100 is complete control
Outline: as §2

[14] = test system: ryegrass, Italian; assay: Test A pre-/postemergence herbicide test; type: in vivo, Lolium multiflorum; conditions: for Plant response rating, Ryegrass, Italian: 0 to 100 scale
Outline: as §3

[15] = 125 g ai/ha, visual rating, 0 no effect, 100 complete control, approximately 10 days, preemergence
[16] = Postemergence, 125 g ai/ha, 0 is no effect, 100 is complete control
[17] = preemergence, 500 g ai/ha, 0 is no effect and 100 is complete control
[18] = 125 g ai/ha, visual rating, 0 to 100 scale, 0 no effect, 100 complete control, approximately 10 days, preemergence
[19] = Postemergence, 125 g ai/ha, 0 to 100 scale, 0 is no effect, 100 is complete control
[20] = preemergence, 500 g ai/ha, 0 to 100 scale (0 no effect, 100 complete control)

Row | SMILES | Plant response rating, Blackgrass [1] | Blackgrass plant response rating (0 to 100 scale, 0 is no effect, 100 is complete control) [1] | Plant response rating, Sedge, Umbrella [2] | Plant response rating, Foxtail, Giant [3, 15] | Plant response rating, Foxtail, Giant [3, 16] | Foxtail, Giant plant response rating (0 to 100 scale, 0 is no effect, 100 is complete control) ([3]; Postemergence, 500 g ai/ha) | Plant response rating, Foxtail, Giant ([3]; preemergence, 500 g ai/ha) | Plant response rating, Corn [4] | Corn plant response rating (0 to 100 scale, 0 is no effect, 100 is complete control) [4] | Plant response rating, Ragweed [5, 15] | Plant response rating, Ragweed [5, 16] | Ragweed plant response rating (0 to 100 scale, 0 is no effect, 100 is complete control) ([5]; Postemergence, 500 g ai/ha) | Plant response rating, Ragweed [5, 17] | Plant response rating, Rice [6] | Plant response rating, Barnyardgrass [7] | Plant response rating, Galium [8] | Galium plant response rating (0 to 100 scale, 0 is no effect, 100 is complete control) [8] | Plant response rating, Pigweed [9, 15] | Plant response rating, Pigweed [9, 16] | Pigweed plant response rating (0 to 100 scale, 0 is no effect, 100 is complete control) ([9]; Postemergence, 500 g ai/ha) | other results
1 | CS(=O)(=O)c1ccccc1NC(=O)C1C(=O)NCC1c1cccc(C(F)(F)F)c1 (racemic) [Compound 160] | 60 | 70 | 0 | 80 | 80 | 90 | 90 | 40 | 70 | 70 | 50 | 60 | 80 | 10 | 60 | 60 | 70 | 70 | 60 | 80 | Plant response rating, Pigweed [9, 17]: 90; Plant response rating, Wheat [10]: 0; Wheat plant response rating (0 to 100 scale, 0 is no effect, 100 is complete control) [10]: 50; Plant response rating, Kochia [11, 15]: 80; Plant response rating, Kochia [11, 16]: 70; Kochia plant response rating (0 to 100 scale, 0 is no effect, 100 is complete control) ([11]; Postemergence, 500 g ai/ha): 80; Plant response rating, Kochia [11, 17]: 90; Plant response rating, Barnyardgrass [12, 18]: 80; Plant response rating, Barnyardgrass [12, 19]: 70; Barnyardgrass plant response rating (0 to 100 scale, 0 is no effect, 100 is complete control) ([12]; Postemergence, 500 g ai/ha): 80; Plant response rating, Barnyardgrass [12, 20]: 90; Plant response rating, Ducksalad [13]: 100; Plant response rating, Ryegrass, Italian [14, 15]: 60; Plant response rating, Ryegrass, Italian [14, 16]: 0; Ryegrass, Italian plant response rating (0 to 100 scale, 0 is no effect, 100 is complete control) ([14]; Postemergence, 500 g ai/ha): 10; Plant response rating, Ryegrass, Italian [14, 17]: 70
2 | O=C1NCC(c2ccc3c(c2)OC(F)(F)O3)C1C(=O)Nc1ccc(F)c(F)c1F (racemic) [Compound 162] | 50 | 50 | 0 | 80 | 90 | 90 | 90 | 30 | 60 | 0 | 0 | 40 | 60 | 0 | 75 | 30 | 70 | 60 | 20 | 70 | Plant response rating, Pigweed [9, 17]: 80; Plant response rating, Wheat [10]: 0; Wheat plant response rating (0 to 100 scale, 0 is no effect, 100 is complete control) [10]: 50; Plant response rating, Kochia [11, 15]: 50; Plant response rating, Kochia [11, 16]: 40; Kochia plant response rating (0 to 100 scale, 0 is no effect, 100 is complete control) ([11]; Postemergence, 500 g ai/ha): 70; Plant response rating, Kochia [11, 17]: 60; Plant response rating, Barnyardgrass [12, 18]: 90; Plant response rating, Barnyardgrass [12, 19]: 70; Barnyardgrass plant response rating (0 to 100 scale, 0 is no effect, 100 is complete control) ([12]; Postemergence, 500 g ai/ha): 90; Plant response rating, Barnyardgrass [12, 20]: 90; Plant response rating, Ducksalad [13]: 100; Plant response rating, Ryegrass, Italian [14, 15]: 0; Plant response rating, Ryegrass, Italian [14, 16]: 0; Ryegrass, Italian plant response rating (0 to 100 scale, 0 is no effect, 100 is complete control) ([14]; Postemergence, 500 g ai/ha): 50; Plant response rating, Ryegrass, Italian [14, 17]: 50
